# Source: US20220071985A1, “QUINOLINE DERIVATIVES FOR USE IN THE TREATMENT OR PREVENTION OF CANCER” (ABIVAX, priority 2018, published 2022)
# How the values were obtained:
# Type in all cases: cell-based
# [1] = test system: PA1405 cell line (Pancreas); assay: CellTiter-Glo cell viability assay, PA1405; conditions: Homo sapiens, 168 h, 7 days drug treatment
# Experimental: (§1) All cell lines are hyman primary cell lines cultured in DMEM/F12+10% FBS+supplemental growth factors, at 37° C. with 5% C02, as explained below. The cell lines are from large intestine/colorectum, stomach, liver, lung or pancreas (see table below). • DMEM/F12 (high glucose) (Gibco, Cat #11320033) • FBS (Cat #FND500, ExCell Bio) • CellTiter-Glo® Luminescent Cell Viability Assay (Cat # G7571, Promega. Stored at −20° C.). • 96 wells plate (Cat #3610, Corning) • DMEM/F12 medium (low glucose): 1:1 mixture of DMEM (low glucose) (Gibco, Cat #11885076) and F-12K (Gibco, Cat #21127022)
# (§2) 1. Each well of a 96-well plate contains 90 μL of cell suspension with cells. The number of cells to be seeded is determined on the basis of a Cell Density Optimization Assay. 2. All 96-wells plates with cells are placed in an incubator overnight at 37° C. with 5% CO2.
# (§3) 3. Dilute ABX464 and add 10 μL/well of ABX464 at the concentrations indicated (see plate map below). The final volume is 100 μL/well.
# (§4) 4. Replace the old medium by pre-prepared fresh medium with ABX464 at the same concentrations indicated. The final volume is 100 μL/well.
# (§5) 5. Cells are observed under a microscope ensuring the cells treated with vehicle control are in good condition. 6. Add 50 μL of CellTiter-Glo® Reagent to each well. 7. […] Record luminescence using an EnVision Multi Label Reader. […]
# [2] = test system: CR3085 cell line (Large intestine/Colorectum); assay: CellTiter-Glo cell viability assay, CR3085; conditions: Homo sapiens
# Experimental: as §1
# (§6) Two types of cell lines have been tested for the compound 26, namely CR3085 (Large intestine/Colorectum) and GA0060 (stomach), as shown below.
# as §2, §3, §4
# (§7) 5. Cells are observed under a microscope ensuring the cells treated with vehicle control are in good condition. 6. Add 50 μL of CellTiter-Glo® Reagent to each well. 7. Mix contents for 2 minutes on an orbital shaker to facilitate cell lysis. 8. Allow the plate to incubate at room temperature for 10 minutes to stabilize luminescent signals. 9. Record luminescence using an EnVision Multi Label Reader.
# (§8) Data analysis is performed using GraphPad Prism 7.0. To calculate IC50s, a dose-response curve is generated using a nonlinear regression model with a sigmoidal dose response. The formula of surviving rate is shown below, and the IC50s will be automatically generated by GraphPad Prism 7.0.
# (§9) LumNone treated-LumMedium control is set as 100%.
# [3] = test system: PA3060 cell line (Pancreas); assay: CellTiter-Glo cell viability assay, PA3060; conditions: Homo sapiens, 168 h, 7 days drug treatment
# Experimental: as §1, §2, §3, §4, §5
# [4] = test system: CR0205 cell line (Large intestine/Colorectum); assay: CellTiter-Glo cell viability assay, CR0205; conditions: Homo sapiens, 168 h, 7 days drug treatment
# Experimental: as §1, §2, §3, §4, §5
# LI0612 cell line (Liver) = assay: CellTiter-Glo cell viability assay, LI0612; conditions: Homo sapiens, 168 h, 7 days drug treatment
# Experimental: as §1, §2, §3, §4, §5
# LU0387 cell line (Lung) = assay: CellTiter-Glo cell viability assay, LU0387; conditions: Homo sapiens, 168 h, 7 days drug treatment
# Experimental: as §1, §2, §3, §4, §5
# [5] = test system: PA0692 cell line (Pancreas); assay: CellTiter-Glo cell viability assay, PA0692; conditions: Homo sapiens, 168 h, 7 days drug treatment
# Experimental: as §1, §2, §3, §4, §5
# [6] = test system: GA0060 cell line (Stomach); assay: CellTiter-Glo cell viability assay, GA0060; conditions: Homo sapiens
# Experimental: as §1, §6, §2, §3, §4, §7, §8, §9
# [7] = test system: CR3150 cell line (Large intestine/Colorectum); assay: CellTiter-Glo cell viability assay, CR3150; conditions: Homo sapiens, 168 h, 7 days drug treatment
# Experimental: as §1, §2, §3, §4, §5
# LU2511 cell line (Lung) = assay: CellTiter-Glo cell viability assay, LU2511; conditions: Homo sapiens, 168 h, 7 days drug treatment
# Experimental: as §1, §2, §3, §4, §5
# [8] = test system: PA1266 cell line (Pancreas); assay: CellTiter-Glo cell viability assay, PA1266; conditions: Homo sapiens, 168 h, 7 days drug treatment
# Experimental: as §1, §2, §3, §4, §5
# [9] = 168 h, CR3085, Large intestine/Colorectum, 7 days drug treatment, CellTiter-Glo
# [10] = 168 h, GA0060, Stomach, 7 days drug treatment, CellTiter-Glo
SMILES,IC50 [1] [µM],"IC50 [2, 9] [µM]",IC50 [3] [µM],IC50 [4] [µM],IC50 (LI0612 cell line (Liver)) [µM],IC50 (LU0387 cell line (Lung)) [µM],IC50 [5] [µM],"IC50 [6, 10] [µM]",IC50 [7] [µM],IC50 (LU2511 cell line (Lung)) [µM],IC50 [8] [µM],"IC50 ([2]; cell line Large intestine/Colorectum CR3085, restated in text without unit) [µM]","IC50 ([6]; cell line stomach GA0060, restated in text without unit) [µM]"
"FC(F)(F)Oc1ccc(Nc2ccc3cccc(Cl)c3n2)cc1 [ABX464, 8-Chloro-N-(4-(trifluoromethoxy)phenyl)quinolin-2-amine]",6.2,0.08,3.71,7.26,4.75,9.49,9.63,0.6,0.87,7.11,3.44,,
"FC(F)(F)c1ccc(Nc2ccc3cccc(Cl)c3n2)nc1 [Comparative compound 26, 8-chloro-N-(5-(trifluoromethyl)pyridin-2-yl)quinolin-2-amine]",,0.17,,,,,,> 10,,,,0.17,> 10
